Reference: patent publication US11045480B2, “Anti-huLRRC15 antibody drug conjugates and methods for their use” (AbbVie Inc., priority 2015, dated 2021)

Columns and labels:
[1] = tested on: PANC1 (pancreatic) xenograft; experiment: PANC1 xenograft tumor growth; format: in vivo, mouse
Method: In FIG. 20E, PANC1 pancreatic cancer cells (10 million) were implanted subcutaneously into SCID mice, and mice were randomized when the tumors reached ˜125 mm^3 and dosed with biologics at 12 mg/kg intraperitoneally on a Q4D×6 (one dose given every 4 days for a total of 6 doses), while gemcitabine was dosed intraperitoneally at 100 mg/kg Q3D×4) (one dose given every three days for 4 doses total).

[2] = tested on: SCC-15 head and neck cancer xenograft; experiment: SCC-15 xenograft tumor growth; format: in vivo, mouse
[3] = tested on: MC-38 mouse colorectal cancer; experiment: MC-38 syngeneic tumor growth; format: in vivo
Method: MC-38 mouse colorectal cancer cells (250,000) were implanted subcutaneously into C57BL/6 mice, and mice were randomized when the tumors reached ˜100 mm^3 and dosed with isotype antibodies or ADCs at 12 mg/kg intraperitoneally on a Q4D×6 (one dose given every 4 days for a total of 6 doses), while the anti-PD-1 antibody (“Anti-PD1 mAb”) was dosed intraperitoneally at 2 mg/kg Q4D×6 (one dose given every 4 days for a total of 6 doses).

[4] = tested on: SCC-15 head and neck cancer xenograft; experiment: SCC-15 xenograft tumor growth; format: in vivo, mouse; conditions: for TGD, single agent / TGImax, single agent: SCC-15, SCID mice
Method: Radiation is a commonly used cytotoxic therapy in oncology. […] SCC-15 head and neck cancer cells (1 million) were implanted subcutaneously into SCID mice, and mice were randomized when the tumors reached ˜200 mm^3 and dosed with biologics at 12 mg/kg intraperitoneally on a Q4D×6 (one dose given every 4 days for a total of 6 doses), while the radiation was directed at the tumor with a single radiation dose of 15 Gy on day 0.
SCC-15 head and neck cancer cells (1 million) were implanted subcutaneously into SCID mice, and mice were randomized when the tumors reached ˜200 mm^3 and dosed with biologics at 12 mg/kg intraperitoneally on a Q7D×6 (one dose given every 7 days for a total of 6 doses), while carboplatin was dosed intraperitoneally […] at 50 mg/kg Q4D×4 (one dose given every 4 days for a total of 4 doses).

[5] = tested on: EBC-1 (human squamous NSCLC) xenograft; experiment: EBC-1 xenograft tumor growth; format: in vivo, mouse; conditions: EBC-1, SCID/Beige mice; huM25-vcMMAE-E2 at 3 mg/kg (method: biologics 6 mg/kg IP Q7D×2); method: gemcitabine 100 mg/kg IP Q3D×3, result sentence names docetaxel (FIG. 21B)
[6] = tested on: EBC-1 (human squamous NSCLC) xenograft; experiment: EBC-1 xenograft tumor growth; format: in vivo, mouse
Method: For the experiments, five million cells (EBC-1) that were grown in vitro were inoculated subcutaneously per mouse into the right flank of female SCID-Beige mice. Tumors were size matched at ˜200 mm^3, and dosed intraperitoneally (IP) Q4D×6 (1 dose given every 4 days for a total of 6 doses) as shown in FIG. 13A. Measurements of the length (L) and width (W) of the tumors were taken via electronic caliper and the volume was calculated according to the following equation: V=L×W^2/2.
For this experiment, tumors were size matched at ˜200 mm^3, and dosed intraperitoneally (IP) Q7D×2 (1 dose given every 7 days for a total of 2 doses) as shown in FIG. 13C. […]
5 million cells were implanted subcutaneously into SCID/Beige mice, and mice were randomized when tumor group mean volumes reached ˜200 mm^3.
In FIG. 20C, EBC1 cells (5 million) were implanted subcutaneously into SCID/Beige mice and mice were randomized when the tumors reached ˜200 mm^3 and dosed with biologics at 6 mg/kg intraperitoneally on a Q7D×2 (one dose given every 7 days for a total of 2 doses), while erlotinib was dosed orally daily for 10 days at 50 mg/kg, and carboplatin was dosed intraperitoneally Q4D×3 (one dose given every 4 days for a total of 3 doses) at 50 mg/kg.
In FIG. 21B, EBC-1 squamous NSCLC cells (5 million) were implanted subcutaneously into SCID/Beige mice, and mice were randomized when the tumors reached ˜200 mm^3 and dosed with biologics at 6 mg/kg intraperitoneally on a Q7D×2 (one dose given every 7 days for a total of 2 doses), while gemcitabine was dosed intraperitoneally at 100 mg/kg (Q3D×3) (one dose given every three days for 3 doses total).

[7] = tested on: HN5 (head and neck) xenograft; experiment: HN5 xenograft tumor growth; format: in vivo, mouse; conditions: HN5, NSG mice; ADC 4.5 mg/kg IP Q4D×6; erlotinib 150 mg/kg orally daily ×10; cetuximab 3 mg/kg IP Q7D×3 (FIG. 20B)
[8] = tested on: NW231 breast cancer xenograft; experiment: NW231 xenograft tumor growth; format: in vivo, mouse; conditions: NW231, SCID mice; biologics 12 mg/kg IP Q4D×6; doxorubicin 1 mg/kg IV days 0, 4, 8, 13, 18 (FIG. 20D)
Method: In FIG. 20D, NW231 breast cancer cells (10 million) were implanted subcutaneously into SCID mice, and mice were randomized when the tumors reached ˜150 mm^3 and dosed with biologics at 12 mg/kg intraperitoneally on a Q4D×6 (one dose given every 4 days for a total of 6 doses), while doxorubicin was dosed intravenously at 1 mg/kg on days 0, 4, 8, 13 and 18.

[9] = SCC-15, SCID mice, ADCs 12 mg/kg IP Q7D×6, cetuximab 3 mg/kg IP Q7D×3 (FIG. 22B)
[10] = SCC-15, ADC 12 mg/kg IP Q7D×6 plus cetuximab 3 mg/kg IP Q7D×3 (FIG. 22B)
[11] = biologics 12 mg/kg IP Q4D×6 (FIG. 21D)
[12] = biologics 12 mg/kg IP Q7D×6, carboplatin 50 mg/kg IP Q4D×4 (FIG. 21E)
[13] = SCC-15, ADC 12 mg/kg IP Q4D×6 plus single radiation dose of 15 Gy on day 0 (FIG. 21D)
[14] = SCC-15, ADC 12 mg/kg IP Q7D×6 plus carboplatin 50 mg/kg IP Q4D×4 (FIG. 21E)
[15] = EBC1, SCID/Beige mice, biologics 6 mg/kg IP Q7D×2, erlotinib 50 mg/kg orally daily ×10, carboplatin 50 mg/kg IP Q4D×3 (FIG. 20C)
[16] = EBC-1, SCID-Beige mice, 6 mg/kg IP Q4D×6 (FIG. 13A)
[17] = EBC-1, ADC plus second agent of FIG. 21B (sentence: docetaxel; method and legend: gemcitabine)

huM25-vcMMAE-E2: huM25 conjugated with maleimidocaproyl val-cit PABA MMAE, preparation enriched in DAR2 by HIC
TGImax ([1]; PANC1 (3+ huLRRC15 stromal positive, cancer negative) tumor model (FIG. 17B)): 94.4% | TGImax ([1]; PANC1, SCID mice, biologics 12 mg/kg IP Q4D×6, gemcitabine 100 mg/kg IP Q3D×4 (FIG. 20E)): 94% | TGD, single agent [2, 9]: 44% | TGImax, single agent [2, 9]: 58% | TGD, used adjunctively with cetuximab [2, 10]: 125% | TGImax, used adjunctively with cetuximab [2, 10]: 87% | single agent activity ([3]; MC-38, C57BL/6 mice, ADC 12 mg/kg IP Q4D×6 (FIG. 22C)): did not show single agent activity | TGImax, administered adjunctively with anti-PD-1 antibody ([3]; MC-38, ADC 12 mg/kg IP Q4D×6 plus anti-PD-1 antibody 2 mg/kg IP Q4D×6 (FIG. 22C)): 87% | TGD, single agent [4, 11]: 44% | TGImax, single agent [4, 11]: 58% | TGD, single agent [4, 12]: 44% | TGImax, single agent [4, 12]: 58% | TGD, used adjunctively with radiation [4, 13]: 219% | TGImax, used adjunctively with radiation [4, 13]: 90% | TGD, used adjunctively with carboplatin [4, 14]: 83% | TGImax, used adjunctively with carboplatin [4, 14]: 86% | TGImax, single agent [5]: 91% | TGD [6, 15]: 129% | TGImax [6, 15]: 92% | maximum tumor growth inhibition (TGImax) [6, 16]: 97% | tumor growth delay (TGD) [6, 16]: 305% | TGD, single agent ([6]; EBC-1, SCID/Beige mice, huM25-vcMMAE-E2 at 3 mg/kg (method: biologics 6 mg/kg IP Q7D×2), method: gemcitabine 100 mg/kg IP Q3D×3, result sentence names docetaxel (FIG. 21B)): 144% | TGD, used adjunctively [6, 17]: 348% | TGImax, used adjunctively [6, 17]: 98% | TGD [7]: 194% | TGImax [7]: 96% | TGImax [8]: 89%
